Experimental data: ChEMBL document CHEMBL4229445, “Activity of steroid 4 and derivatives 4a-4f as inhibitors of the enzyme 5α-reductase 1” (Bioorg Med Chem, 2018)
Active and inactive are the calls of the source. The rule behind the calls is not given here.

Target: T1, 3-oxo-5-alpha-steroid 4-dehydrogenase 1 (Rattus norvegicus, UniProt P24008)
T1 sequence (P24008 whole entry): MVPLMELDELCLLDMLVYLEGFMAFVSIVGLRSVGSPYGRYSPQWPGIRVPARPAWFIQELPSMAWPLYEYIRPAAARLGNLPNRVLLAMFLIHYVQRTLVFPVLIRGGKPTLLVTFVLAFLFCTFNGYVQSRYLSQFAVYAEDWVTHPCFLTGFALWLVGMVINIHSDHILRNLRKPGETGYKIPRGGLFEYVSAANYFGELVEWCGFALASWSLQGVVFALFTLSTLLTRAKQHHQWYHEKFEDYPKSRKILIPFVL
Assay: Inhibition of rat liver microsomes 5alpha-reductase1 using [1,2,6,7-3H]T as substrate measured after 60 mins by chromatographic method
Details: not given

IC50 | Compound
Not Active | Cc1ccc(C(=O)O[C@H]2CC[C@@]3(C)C(=CC[C@@H]4[C@@H]3CC[C@]3(C)C(n5cnc6ccccc65)=C(C=O)C[C@@H]43)C2)cc1
Not Active | C[C@]12CC[C@H](OC(=O)c3ccccc3)CC1=CC[C@@H]1[C@@H]2CC[C@]2(C)C(n3cnc4ccccc43)=C(C=O)C[C@@H]12
Not Active | C[C@]12CC[C@H](OC(=O)c3ccc(Br)cc3)CC1=CC[C@@H]1[C@@H]2CC[C@]2(C)C(n3cnc4ccccc43)=C(C=O)C[C@@H]12
Not Active | C[C@]12CC[C@H](OC(=O)c3ccc(I)cc3)CC1=CC[C@@H]1[C@@H]2CC[C@]2(C)C(n3cnc4ccccc43)=C(C=O)C[C@@H]12

Same assay, conditions: read-out: IC50

IC50 [µM] | Compound
40 | C[C@]12CC[C@H](OC(=O)c3ccc(F)cc3)CC1=CC[C@@H]1[C@@H]2CC[C@]2(C)C(n3cnc4ccccc43)=C(C=O)C[C@@H]12
0.291 | C[C@]12CC[C@H](O)CC1=CC[C@@H]1[C@@H]2CC[C@]2(C)C(n3cnc4ccccc43)=C(C=O)C[C@@H]12
83 | C[C@]12CC[C@H](OC(=O)c3ccc(Cl)cc3)CC1=CC[C@@H]1[C@@H]2CC[C@]2(C)C(n3cnc4ccccc43)=C(C=O)C[C@@H]12

Tested on: Syrian golden hamster
Assay: Inhibition of testosterone-induced flank organ enlargement in golden hamster assessed as reduction in diameter of pigmented spot at 2 mg/kg, sc administered daily for 6 days measured post last dose by calliper method
Format: functional, organism-based
Details: Mesocricetus auratus

Compound | inhibition
Cc1ccc(C(=O)O[C@H]2CC[C@@]3(C)C(=CC[C@@H]4[C@@H]3CC[C@]3(C)C(n5cnc6ccccc65)=C(C=O)C[C@@H]43)C2)cc1 | Active
C[C@]12CC[C@H](OC(=O)c3ccccc3)CC1=CC[C@@H]1[C@@H]2CC[C@]2(C)C(n3cnc4ccccc43)=C(C=O)C[C@@H]12 | Active
C[C@]12CC[C@H](OC(=O)c3ccc(Br)cc3)CC1=CC[C@@H]1[C@@H]2CC[C@]2(C)C(n3cnc4ccccc43)=C(C=O)C[C@@H]12 | Active
C[C@]12CC[C@H](O)CC1=CC[C@@H]1[C@@H]2CC[C@]2(C)C(n3cnc4ccccc43)=C(C=O)C[C@@H]12 | Active
C[C@]12CC[C@H](OC(=O)c3ccc(Cl)cc3)CC1=CC[C@@H]1[C@@H]2CC[C@]2(C)C(n3cnc4ccccc43)=C(C=O)C[C@@H]12 | Active
C[C@]12CC[C@H](OC(=O)c3ccc(I)cc3)CC1=CC[C@@H]1[C@@H]2CC[C@]2(C)C(n3cnc4ccccc43)=C(C=O)C[C@@H]12 | Active

Tested on: Syrian golden hamster
Assay: Inhibition of testosterone-induced flank organ enlargement in golden hamster assessed as diameter of pigmented spot at 2 mg/kg, sc administered daily for 6 days measured post last dose by calliper method
Format: functional, Mesocricetus auratus
Details: not given

Compound | Activity [mm]
C[C@]12CC[C@H](OC(=O)c3ccc(F)cc3)CC1=CC[C@@H]1[C@@H]2CC[C@]2(C)C(n3cnc4ccccc43)=C(C=O)C[C@@H]12 | 1.7

Tested on: Syrian golden hamster
Assay: Inhibition of testosterone-induced flank organ enlargement in golden hamster assessed as reduction in diameter of pigmented spot at 1 mg/kg, sc administered daily for 6 days measured post last dose by calliper method
Format: functional, organism-based
Details: Mesocricetus auratus

Compound | inhibition
CC(C)(C)NC(=O)[C@H]1CC[C@H]2[C@@H]3CC[C@H]4NC(=O)C=C[C@]4(C)[C@H]3CC[C@]12C | Active

Tested on: Syrian golden hamster
Assay: Inhibition of testosterone-induced increase in prostate weight in golden hamster at 2 mg/kg, sc administered daily for 6 days measured post last dose
Format: functional, organism-based
Details: Mesocricetus auratus

Compound | inhibition
Cc1ccc(C(=O)O[C@H]2CC[C@@]3(C)C(=CC[C@@H]4[C@@H]3CC[C@]3(C)C(n5cnc6ccccc65)=C(C=O)C[C@@H]43)C2)cc1 | Active
C[C@]12CC[C@H](OC(=O)c3ccccc3)CC1=CC[C@@H]1[C@@H]2CC[C@]2(C)C(n3cnc4ccccc43)=C(C=O)C[C@@H]12 | Active
C[C@]12CC[C@H](OC(=O)c3ccc(F)cc3)CC1=CC[C@@H]1[C@@H]2CC[C@]2(C)C(n3cnc4ccccc43)=C(C=O)C[C@@H]12 | Active
C[C@]12CC[C@H](OC(=O)c3ccc(Br)cc3)CC1=CC[C@@H]1[C@@H]2CC[C@]2(C)C(n3cnc4ccccc43)=C(C=O)C[C@@H]12 | Active
C[C@]12CC[C@H](O)CC1=CC[C@@H]1[C@@H]2CC[C@]2(C)C(n3cnc4ccccc43)=C(C=O)C[C@@H]12 | Active
C[C@]12CC[C@H](OC(=O)c3ccc(Cl)cc3)CC1=CC[C@@H]1[C@@H]2CC[C@]2(C)C(n3cnc4ccccc43)=C(C=O)C[C@@H]12 | Active
C[C@]12CC[C@H](OC(=O)c3ccc(I)cc3)CC1=CC[C@@H]1[C@@H]2CC[C@]2(C)C(n3cnc4ccccc43)=C(C=O)C[C@@H]12 | Active

Tested on: Syrian golden hamster
Assay: Inhibition of testosterone-induced increase in seminal vesicle weight in golden hamster at 2 mg/kg, sc administered daily for 6 days measured post last dose
Format: functional, organism-based
Details: Mesocricetus auratus

Compound | inhibition
Cc1ccc(C(=O)O[C@H]2CC[C@@]3(C)C(=CC[C@@H]4[C@@H]3CC[C@]3(C)C(n5cnc6ccccc65)=C(C=O)C[C@@H]43)C2)cc1 | Active
C[C@]12CC[C@H](OC(=O)c3ccccc3)CC1=CC[C@@H]1[C@@H]2CC[C@]2(C)C(n3cnc4ccccc43)=C(C=O)C[C@@H]12 | Active
C[C@]12CC[C@H](OC(=O)c3ccc(F)cc3)CC1=CC[C@@H]1[C@@H]2CC[C@]2(C)C(n3cnc4ccccc43)=C(C=O)C[C@@H]12 | Active
C[C@]12CC[C@H](OC(=O)c3ccc(Br)cc3)CC1=CC[C@@H]1[C@@H]2CC[C@]2(C)C(n3cnc4ccccc43)=C(C=O)C[C@@H]12 | Active
C[C@]12CC[C@H](O)CC1=CC[C@@H]1[C@@H]2CC[C@]2(C)C(n3cnc4ccccc43)=C(C=O)C[C@@H]12 | Active
C[C@]12CC[C@H](OC(=O)c3ccc(Cl)cc3)CC1=CC[C@@H]1[C@@H]2CC[C@]2(C)C(n3cnc4ccccc43)=C(C=O)C[C@@H]12 | Active
C[C@]12CC[C@H](OC(=O)c3ccc(I)cc3)CC1=CC[C@@H]1[C@@H]2CC[C@]2(C)C(n3cnc4ccccc43)=C(C=O)C[C@@H]12 | Active

Tested on: not listed separately
Assay: Drug metabolism in golden hamster plasma assessed as esterase-mediated 21(2-Oxo-ethyl-benzimidazol)-3-ceto, pregnen-16,17-diene formation by measuring retardation factor at 4 mg/kg, sc measured after 30 mins in presence of testosterone by TLC method
Format: ADME, organism-based, Mesocricetus auratus
Details: in vivo, 0.5 h

Compound | Rf
C[C@]12CC[C@H](OC(=O)c3ccc(Br)cc3)CC1=CC[C@@H]1[C@@H]2CC[C@]2(C)C(n3cnc4ccccc43)=C(C=O)C[C@@H]12 | 0.42
C[C@]12CC[C@H](OC(=O)c3ccc(I)cc3)CC1=CC[C@@H]1[C@@H]2CC[C@]2(C)C(n3cnc4ccccc43)=C(C=O)C[C@@H]12 | 0.42

Results, then the compound that gave them:

Rf | Compound
0.42 | C[C@]12CC[C@H](OC(=O)c3ccc(F)cc3)CC1=CC[C@@H]1[C@@H]2CC[C@]2(C)C(n3cnc4ccccc43)=C(C=O)C[C@@H]12
0.42 | C[C@]12CC[C@H](OC(=O)c3ccc(Cl)cc3)CC1=CC[C@@H]1[C@@H]2CC[C@]2(C)C(n3cnc4ccccc43)=C(C=O)C[C@@H]12

Tested on: not listed separately
Assay: Drug metabolism in golden hamster plasma assessed as esterase-mediated 21(2-Oxo-ethyl-benzimidazol)-3-ceto, pregnen-16,17-diene formation at 4 mg/kg, sc measured after 60 to 120 mins in presence of testosterone by TLC method
Format: ADME, organism-based, Mesocricetus auratus
Details: in vivo

Drug metabolism | Compound
Metabolite_Detected | Cc1ccc(C(=O)O[C@H]2CC[C@@]3(C)C(=CC[C@@H]4[C@@H]3CC[C@]3(C)C(n5cnc6ccccc65)=C(C=O)C[C@@H]43)C2)cc1
Metabolite_Detected | C[C@]12CC[C@H](OC(=O)c3ccccc3)CC1=CC[C@@H]1[C@@H]2CC[C@]2(C)C(n3cnc4ccccc43)=C(C=O)C[C@@H]12
Metabolite_Detected | C[C@]12CC[C@H](OC(=O)c3ccc(Br)cc3)CC1=CC[C@@H]1[C@@H]2CC[C@]2(C)C(n3cnc4ccccc43)=C(C=O)C[C@@H]12

Tested on: not listed separately
Assay: Stability of the compound in water
Format: physicochemical
Details: buffer

Compound | Stability
Cc1ccc(C(=O)O[C@H]2CC[C@@]3(C)C(=CC[C@@H]4[C@@H]3CC[C@]3(C)C(n5cnc6ccccc65)=C(C=O)C[C@@H]43)C2)cc1 | Stable
C[C@]12CC[C@H](OC(=O)c3ccccc3)CC1=CC[C@@H]1[C@@H]2CC[C@]2(C)C(n3cnc4ccccc43)=C(C=O)C[C@@H]12 | Stable
C[C@]12CC[C@H](OC(=O)c3ccc(Br)cc3)CC1=CC[C@@H]1[C@@H]2CC[C@]2(C)C(n3cnc4ccccc43)=C(C=O)C[C@@H]12 | Stable
C[C@]12CC[C@H](OC(=O)c3ccc(I)cc3)CC1=CC[C@@H]1[C@@H]2CC[C@]2(C)C(n3cnc4ccccc43)=C(C=O)C[C@@H]12 | Stable

Now from value to compound:

Stability | Compound
Unstable | C[C@]12CC[C@H](OC(=O)c3ccc(F)cc3)CC1=CC[C@@H]1[C@@H]2CC[C@]2(C)C(n3cnc4ccccc43)=C(C=O)C[C@@H]12
Unstable | C[C@]12CC[C@H](OC(=O)c3ccc(Cl)cc3)CC1=CC[C@@H]1[C@@H]2CC[C@]2(C)C(n3cnc4ccccc43)=C(C=O)C[C@@H]12

Target: T2, 3-oxo-5-alpha-steroid 4-dehydrogenase 2 (Homo sapiens) (UniProt P31213)
T2 sequence (whole entry): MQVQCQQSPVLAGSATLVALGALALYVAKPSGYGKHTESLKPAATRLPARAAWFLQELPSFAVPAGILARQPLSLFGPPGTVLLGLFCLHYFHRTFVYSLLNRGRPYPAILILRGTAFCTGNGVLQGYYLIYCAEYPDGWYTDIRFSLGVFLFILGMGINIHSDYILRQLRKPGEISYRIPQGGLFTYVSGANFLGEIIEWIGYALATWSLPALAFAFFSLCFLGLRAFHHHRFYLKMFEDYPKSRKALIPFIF
Assay: Inhibition of 5alpha-reductase2 (unknown origin)
Details: not given

Compound | inhibition
Cc1ccc(C(=O)O[C@H]2CC[C@@]3(C)C(=CC[C@@H]4[C@@H]3CC[C@]3(C)C(n5cnc6ccccc65)=C(C=O)C[C@@H]43)C2)cc1 | inactive
C[C@]12CC[C@H](OC(=O)c3ccccc3)CC1=CC[C@@H]1[C@@H]2CC[C@]2(C)C(n3cnc4ccccc43)=C(C=O)C[C@@H]12 | inactive
C[C@]12CC[C@H](OC(=O)c3ccc(Br)cc3)CC1=CC[C@@H]1[C@@H]2CC[C@]2(C)C(n3cnc4ccccc43)=C(C=O)C[C@@H]12 | inactive
C[C@]12CC[C@H](O)CC1=CC[C@@H]1[C@@H]2CC[C@]2(C)C(n3cnc4ccccc43)=C(C=O)C[C@@H]12 | inactive
C[C@]12CC[C@H](OC(=O)c3ccc(I)cc3)CC1=CC[C@@H]1[C@@H]2CC[C@]2(C)C(n3cnc4ccccc43)=C(C=O)C[C@@H]12 | inactive

Continued, values first:

inhibition | Compound
inactive | C[C@]12CC[C@H](OC(=O)c3ccc(F)cc3)CC1=CC[C@@H]1[C@@H]2CC[C@]2(C)C(n3cnc4ccccc43)=C(C=O)C[C@@H]12
inactive | C[C@]12CC[C@H](OC(=O)c3ccc(Cl)cc3)CC1=CC[C@@H]1[C@@H]2CC[C@]2(C)C(n3cnc4ccccc43)=C(C=O)C[C@@H]12

Tested on: Syrian golden hamster
Assay: Inhibition of testosterone-induced increase in prostate weight in golden hamster at 1 mg/kg, sc administered daily for 6 days measured post last dose
Format: functional, organism-based
Details: Mesocricetus auratus

Compound | inhibition
CC(C)(C)NC(=O)[C@H]1CC[C@H]2[C@@H]3CC[C@H]4NC(=O)C=C[C@]4(C)[C@H]3CC[C@]12C | Active

Tested on: Syrian golden hamster
Assay: Inhibition of testosterone-induced increase in seminal vesicle weight in golden hamster at 1 mg/kg, sc administered daily for 6 days measured post last dose
Format: functional, organism-based
Details: Mesocricetus auratus

Compound | inhibition
CC(C)(C)NC(=O)[C@H]1CC[C@H]2[C@@H]3CC[C@H]4NC(=O)C=C[C@]4(C)[C@H]3CC[C@]12C | Active
